Reference: ChEMBL document CHEMBL1201862, “PubChem BioAssay data set” (2004)
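These data come from cells grown in 96-well plates and exposed to compound for 48 hours at five concentrations. At the GI50, growth is halved.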 Active and inactive are the calls of the source. Rule as the data show it: active = GI50 up to about 1.1 µM and inactive = higher.

Legend:
Assay in all cases: NCI tumour cell line growth inhibition, 48 h
SF-539 = system: SF-539
UO-31 = system: UO-31
SNB-19 = system: SNB-19
UACC-257 = system: UACC-257
Hs-578T = system: Hs-578T
OVCAR-3 = system: OVCAR-3
UACC-62 = system: UACC-62
K562 = system: K562
PC-3 = system: PC-3
M14 = system: M14
OVCAR-4 = system: OVCAR-4
NCI/ADR-RES = system: NCI/ADR-RES
HCC 2998 = system: HCC 2998
MDA-MB-231 = system: MDA-MB-231
T47D = system: T47D
HOP-62 = system: HOP-62
SK-MEL-2 = system: SK-MEL-2
SK-MEL-5 = system: SK-MEL-5
A498 = system: A498

Measured: GI50

CCc1cc2c(oc3c4ccccc4ccc23)c(=O)[nH]1
inactive: SF-539 > 10 µM | UO-31 > 10 µM | SNB-19 > 10 µM | UACC-257 > 10 µM | Hs-578T > 10 µM | OVCAR-3 > 10 µM | UACC-62 > 10 µM | K562 > 10 µM | PC-3 > 10 µM | M14 > 10 µM | OVCAR-4 > 10 µM

COc1ccccc1N1C(=O)/C(=C\c2cccc(Oc3ccccc3)c2)S(=O)(=O)C1c1ccccc1 (stereo not given)
inactive: NCI/ADR-RES 2.92 µM | UO-31 46.8 µM | SNB-19 50 µM | HCC 2998 > 100 µM | UACC-257 21.7 µM | MDA-MB-231 > 100 µM | T47D 22.3 µM | HOP-62 > 100 µM | OVCAR-3 38.7 µM | UACC-62 17.8 µM | K562 17.3 µM | PC-3 41.4 µM | SK-MEL-2 21.4 µM | M14 50 µM | OVCAR-4 9.79 µM | SK-MEL-5 21.5 µM | A498 49.8 µM

COc1cc2c(c(OC)c1OC)C(=O)CC2N (stereo not given)
inactive: SF-539 > 100 µM | NCI/ADR-RES > 100 µM | UO-31 > 100 µM | SNB-19 > 100 µM | HCC 2998 > 100 µM | UACC-257 > 100 µM | MDA-MB-231 > 100 µM | Hs-578T > 100 µM | OVCAR-3 > 100 µM | UACC-62 > 100 µM | K562 > 100 µM | PC-3 > 100 µM | SK-MEL-2 > 100 µM | M14 > 100 µM | OVCAR-4 > 100 µM | SK-MEL-5 > 100 µM | A498 > 100 µM

CC(C)=CCCC1(Sc2ccccc2)C(=O)OCC1C=C(C)C (stereo not given)
inactive: SF-539 20.6 µM | NCI/ADR-RES 21.2 µM | UO-31 22.6 µM | SNB-19 21.5 µM | HCC 2998 29.8 µM | UACC-257 17.5 µM | MDA-MB-231 47.2 µM | T47D 22.4 µM | HOP-62 48.9 µM | OVCAR-3 17.3 µM | PC-3 31.8 µM | SK-MEL-2 18.5 µM | M14 17.3 µM | OVCAR-4 29 µM | SK-MEL-5 20.3 µM | A498 52.4 µM

COc1cc(C2[C@H]3C(=O)N(c4ccc(Cc5ccc(N6C(=O)[C@@H]7ON(c8ccccc8)C(c8cc(OC)c(OC)c(OC)c8)[C@@H]7C6=O)cc5)cc4)C(=O)[C@H]3ON2c2ccccc2)cc(OC)c1OC (stereo not given in full)
inactive: SF-539 > 100 µM | UO-31 > 100 µM | SNB-19 > 100 µM | HCC 2998 > 100 µM | UACC-257 > 100 µM | HOP-62 > 100 µM | OVCAR-3 > 100 µM | UACC-62 95.3 µM | K562 > 100 µM | SK-MEL-2 > 100 µM | M14 17 µM | OVCAR-4 > 100 µM | SK-MEL-5 38.5 µM | A498 > 100 µM

COC(=O)C1(c2cc3ccccc3n2S(=O)(=O)c2ccccc2)CC2C=CC1NC2 (stereo not given)
inactive: SF-539 1.95 µM | NCI/ADR-RES 2.42 µM | UO-31 1.48 µM | SNB-19 2.2 µM | HCC 2998 1.98 µM | UACC-257 2.22 µM | MDA-MB-231 1.79 µM | T47D 3.24 µM | HOP-62 1.66 µM | OVCAR-3 2.29 µM | UACC-62 1.62 µM | K562 1.77 µM | PC-3 1.61 µM | SK-MEL-2 1.77 µM | M14 1.79 µM | OVCAR-4 1.98 µM | SK-MEL-5 6.12 µM | A498 3.09 µM

COc1ccc(-c2c3c(n(C4OC(COC(C)=O)C(OC(C)=O)C(OC(C)=O)C4OC(C)=O)c(=S)c2C#N)CCC3)cc1 (stereo not given)
inactive: SF-539 > 100 µM | NCI/ADR-RES > 100 µM | UO-31 81.3 µM | SNB-19 > 100 µM | HCC 2998 > 100 µM | UACC-257 > 100 µM | HOP-62 > 100 µM | Hs-578T > 100 µM | OVCAR-3 > 100 µM | UACC-62 > 100 µM | K562 > 100 µM | PC-3 > 100 µM | SK-MEL-2 > 100 µM | M14 > 100 µM | OVCAR-4 > 100 µM | SK-MEL-5 38.8 µM

CN1CNc2nc(N)n(C)c(=O)c2C1
inactive: SF-539 > 10 µM | NCI/ADR-RES > 10 µM | UO-31 > 10 µM | SNB-19 > 10 µM | HCC 2998 > 10 µM | UACC-257 > 10 µM | OVCAR-3 > 10 µM | UACC-62 > 10 µM | K562 > 10 µM | SK-MEL-2 > 10 µM | M14 > 10 µM | OVCAR-4 > 10 µM

O=c1[nH]c(=S)c2cc3c(=S)[nH]c(=O)n(CCC(c4ccccc4)(c4ccccc4)c4ccccc4)c3nc2n1CCC(c1ccccc1)(c1ccccc1)c1ccccc1
inactive: NCI/ADR-RES > 100 µM | UO-31 > 100 µM | SNB-19 > 100 µM | HCC 2998 > 100 µM | UACC-257 > 100 µM | MDA-MB-231 59.4 µM | T47D > 100 µM | HOP-62 > 100 µM | OVCAR-3 > 100 µM | UACC-62 > 100 µM | K562 24.8 µM | PC-3 > 100 µM | SK-MEL-2 > 100 µM | M14 > 100 µM | OVCAR-4 > 100 µM | SK-MEL-5 > 100 µM | A498 > 100 µM

COC1OC(C(=O)O)C2OC(C)(C)OC12 (stereo not given)
inactive: SF-539 > 100 µM | NCI/ADR-RES > 100 µM | UO-31 > 100 µM | SNB-19 > 100 µM | HCC 2998 > 100 µM | UACC-257 > 100 µM | MDA-MB-231 > 100 µM | HOP-62 > 100 µM | OVCAR-3 > 100 µM | UACC-62 > 100 µM | K562 > 100 µM | PC-3 > 100 µM | SK-MEL-2 > 100 µM | M14 > 100 µM | OVCAR-4 > 100 µM | SK-MEL-5 > 100 µM

CC1=Nc2c(C#N)ncn2N=C(C)C1
inactive: SF-539 > 100 µM | NCI/ADR-RES > 100 µM | UO-31 > 100 µM | UACC-257 > 100 µM | MDA-MB-231 > 100 µM | HOP-62 > 100 µM | Hs-578T > 100 µM | OVCAR-3 > 100 µM | UACC-62 > 100 µM | K562 > 100 µM | PC-3 > 100 µM | SK-MEL-2 > 100 µM | M14 > 100 µM | OVCAR-4 > 100 µM | SK-MEL-5 > 100 µM | A498 > 100 µM

COC1O[C@@H]2CCN3C(=O)[C@@H](OC(=O)c4ccc([N+](=O)[O-])cc4)[C@H]1C23 (stereo not given in full)
inactive: SF-539 > 100 µM | NCI/ADR-RES > 100 µM | UO-31 > 100 µM | HCC 2998 > 100 µM | UACC-257 > 100 µM | MDA-MB-231 > 100 µM | T47D > 100 µM | HOP-62 > 100 µM | Hs-578T > 100 µM | OVCAR-3 > 100 µM | UACC-62 > 100 µM | K562 > 100 µM | M14 > 100 µM | SK-MEL-5 > 100 µM | A498 64.7 µM
